Assay [1] relates to Mycobacterium avium Strain NIHJ 1605. The experiment in a line: In vitro antibacterial activity (1): minimum inhibitory concentration, broth dilution. Type of assay: cell-based. To be noted: NIHJ1605, 144 h; Mycobacterium avium NIHJ 1605; Middlebrook 7H9 broth, aerobic culture at 37° C. for 6 days. On the technique in general: In broth dilution the organism is exposed to a series of concentrations in liquid medium.

The test system of the next assay is M. tuberculosis Kato. The assay is described as follows: In vitro antibacterial activity (2): MIC by broth dilution method. To be noted: Mycobacterium tuberculosis; Middlebrook 7H9 broth, 35° C. for 10–21 days; read-out: MICs against Mycobacterium tuberculosis, M. tuberculosis Kato. It counts as cell-based. On the procedure: The minimum inhibitory concentration (MICs) of the test compounds against Mycobacterium tuberculosis was determined by the broth dilution method. After the solution of a test compound in dimethyl sulfoxide (DMSO) or distilled water was diluted with 50% aqueous acetone or distilled water, each two-fold dilution of the solution was carried out with Middlebrook 7H9 broth containing 0.05% Tween 80, 0.2% dextrose and Middlebrook ADC enrichment. […] The microorganisms cultivated on Ogawa medium were suspended uniformly in Middlebrook 7H9 broth containing 0.05% Tween 80, 0.2% dextrose and Middlebrook ADC enrichment. The microorganism solution was adjusted to about 1×10^7 CFU/mL using a spectrophotometer. The resulting microorganism solution was further diluted with Middlebrook 7H9 broth containing 0.05% Tween 80, 0.2% dextrose and Middlebrook ADC enrichment (final viable cell count: about 1×10^5 CFU/mL). After mixing the diluted microorganism solution with the diluted test compound solution in the test tube, cultivation was performed at 35° C. for 10–21 days. When significant growth was found in the control test tube with no test compound, the MIC was determined as the minimum concentration of the compound at which no colony was recognized macroscopically in the test tube.

Molecules are shown by their SMILES. Values after ≈ are worked out from the molar mass of the structure shown.

Regarding `CO[C@H]1[C@@H](O)[C@H](n2ccc(=O)[nH]c2=O)O[C@@H]1[C@@H](O[C@H]1OC(C(=O)N[C@H]2CCCCNC2=O)=C[C@H](O)[C@@H]1O)C(N)=O` [Capuramycin, capuramycin, reference compound], the MIC in assay [1] was determined as 8 µg/mL (≈ 14 µM). On to `CO[C@H]1[C@@H](O)[C@H](n2ccc(=O)[nH]c2=O)O[C@@H]1[C@@H](O[C@H]1OC(C(=O)Nc2ccc(F)c(F)c2)=C[C@H](O)[C@@H]1O)C(N)=O` [Exemplification Compound No. 3712], for which the figures for the MIC (in assay [1]; with M. tuberculosis Kato) were 2 µg/mL (≈ 3.51 µM) and 1 µg/mL (≈ 1.75 µM), respectively.

Values taken from patent US7157442B2, “Antibacterial compound” (Sankyo Company, Limited, priority 1999, dated 2007).
